Earlier results in US7368458B2, “Bicyclic heterocycles as cannabinoid receptor modulators” (Bristol-Myers Squibb Company, priority 2005, dated 2008).
Read-outs that look alike come from different tables or passages of the source.

Assays:
[1] = chronic administration for two weeks
[2] = human subjects, 16 week trial period

SMILES	body weight [1]	body weight [2]
Cc1c(C(=O)NN2CCCCC2)nn(-c2ccc(Cl)cc2Cl)c1-c1ccc(I)cc1 [AM-251]	substantial body weight reduction	
Cc1c(C(=O)NN2CCCCC2)nn(-c2ccc(Cl)cc2Cl)c1-c1ccc(Cl)cc1 [SR-141716]		dose-dependently reduced body weight
